In series [1] the target is T1, human OPRM1 (μ, MOR) (Homo sapiens, UniProt P35372).
T1 construct: host or cells: CHO-K1
It counts as cell-based. The note with it: for ΔRA of compound: relative activity from EC50 and Emax of β-arrestin vs cAMP, lower RA = more G-protein biased. In outline:
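Activity measured in cell assays for G-protein signaling and for β-arrestin recruitment. A relative activity (RA) value was derived by comparing the two readouts, taking both EC50 and Emax into account.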

Series [2] deals with T1, human OPRM1 (μ, MOR). Nature of the series: cell-based. The note with it: for Emax: OPRM1, read-out: cAMP Emax; for EC50: PathHunter human OPRM1 Arrestin CHO-K1 cell line, read-out: cAMP EC50. The protocol:
G-protein signaling was measured via second messenger cAMP modulation. Detection of cAMP modulation was accomplished in the PathHunter human OPRM1 (μ, MOR) Arrestin CHO-K1 cell line using the Dynamic2 cAMP Kit from Cisbio.

For series [3], the target named is T1, human OPRM1 (μ, MOR). The series is described as follows: cell-based. The note with it: for Emax: OPRM1, read-out: β-Arrestin Emax; for EC50: PathHunter human OPRM1 Arrestin CHO-K1 cell line, read-out: β-Arrestin EC50. Put shortly:
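β-Arrestin-2 recruitment was measured in PathHunter CHO-K1 cells expressing ED-tagged human OPRM1 and EA-fused arrestin. Agonist-driven recruitment restores β-galactosidase activity by enzyme fragment complementation, read by chemiluminescence.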

The text below walks through data of patent publication US20220315567A1 (priority 2016, published 2022).

Counter-ions that a name gives are not always drawn. Like-named read-outs stand apart in the source and are kept apart here.

T1 sequence (P35372 whole entry): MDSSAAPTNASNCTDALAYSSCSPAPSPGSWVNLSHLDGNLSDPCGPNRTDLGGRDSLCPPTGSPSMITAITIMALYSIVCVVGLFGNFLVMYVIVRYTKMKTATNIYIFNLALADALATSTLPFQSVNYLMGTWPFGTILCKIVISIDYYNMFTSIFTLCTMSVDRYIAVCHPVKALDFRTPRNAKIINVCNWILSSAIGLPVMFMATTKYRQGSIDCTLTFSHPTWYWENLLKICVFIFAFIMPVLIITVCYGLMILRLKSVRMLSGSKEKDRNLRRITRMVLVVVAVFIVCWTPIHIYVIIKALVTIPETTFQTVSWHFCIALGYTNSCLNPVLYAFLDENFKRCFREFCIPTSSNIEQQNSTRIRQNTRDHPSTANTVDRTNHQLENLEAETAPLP

The compound `CN(C)C(CNC(=O)N[C@@H]1CCc2ccccc2C1)c1ccsc1` (stereo partly drawn) [Compound 66] displayed a melting point of 164 to 166 °C. Besides, at human OPRM1 (μ, MOR) [1], the “Bias Factor (ΔRA of compound relative to ΔRA of DAMGO) × 10” value is reported as below −14.83 and the ΔRA of compound is reported as below −2.96.

With `CN(C(=O)OC(C)(C)C)C(CNC(=O)N1Cc2ccc(F)cc2C1)c1ccsc1` (stereo not drawn) [Compound 34, tert-Butyl (2-(5-fluoroisoindoline-2-carboxamido)-1-(thiophen-3-yl)ethyl)(methyl)carbamate], the melting point is 182 to 184 °C. Further, at human OPRM1 (μ, MOR) [2], the Emax was found to be 2.6% and the EC50 was above 100 µM. On human OPRM1 (μ, MOR) [3], the Emax is below 1% and the EC50 is above 100 µM.

Compound `CN(C)C1(CNC(=O)N[C@H]2CCc3ccccc3C2)CCCCC1` [Compound 56] displayed a melting point of 191 to 193 °C. Further, at human OPRM1 (μ, MOR) [2], the Emax is 43.3% and the 50% effective concentration (EC50) came out at 7.74 µM. In addition, on human OPRM1 (μ, MOR) [3], the Emax was below 1% and the EC50 is above 100 µM. In addition, on human OPRM1 (μ, MOR) [1], the “Bias Factor (ΔRA of compound relative to ΔRA of DAMGO) × 10” value was below −14.83 and the ΔRA of compound was below −2.96.

`CN(C)[C@@H](CCNC(=O)N[C@@H]1CCc2ccccc2C1)c1ccsc1` [Compound 73] returned a melting point of 147 to 148 °C. Also, at human OPRM1 (μ, MOR) [2], the Emax came to 13.6% and the half-maximal effective concentration (EC50) stood at 0.422 µM. Also, at human OPRM1 (μ, MOR) [3], the Emax was below 1% and the EC50 is above 100 µM. In addition, on human OPRM1 (μ, MOR) [1], the “Bias Factor (ΔRA of compound relative to ΔRA of DAMGO) × 10” value is recorded as below −14.83 and the ΔRA of compound is below −2.96.

For the compound `CN(C)C(CNC(=O)N1Cc2cccc(C#N)c2C1)c1ccsc1` (stereo not drawn) [Compound 44], the melting point was 159 to 161 °C. Also, on human OPRM1 (μ, MOR) [2], the Emax came to 51.4% and the concentration giving a half-maximal response (EC50) was 0.162 µM. Also, on human OPRM1 (μ, MOR) [3], the Emax was found to be 5.3% and the EC50 is above 100 µM. Moreover, at human OPRM1 (μ, MOR) [1], the “Bias Factor (ΔRA of compound relative to ΔRA of DAMGO) × 10” value was below −14.83 and the ΔRA of compound is recorded as below −2.96.

For the compound `CN(C)C1(CNC(=O)N2Cc3ccccc3C2)CCCCC1` [Compound 54], the melting point was in the range of 225 to 227 °C. At human OPRM1 (μ, MOR) [2], the Emax was determined as 113% and the EC50 came to 0.396 µM. In addition, on human OPRM1 (μ, MOR) [3], the maximum response (Emax) came to 20.8% and the concentration for a half-maximal effect (EC50) amounted to 4.42 µM. At human OPRM1 (μ, MOR) [1], the “Bias Factor (ΔRA of compound relative to ΔRA of DAMGO) × 10” value is recorded as −3.04 and the ΔRA of compound is given as −1.78.

`CN(C)[C@H](CCNC(=O)N[C@@H]1CCc2ccccc2C1)c1ccsc1` [Compound 72] came in with a melting point of 147 to 149 °C. For the same compound, on human OPRM1 (μ, MOR) [2], the “cAMP Emax” value is on record as 111.9% and the EC50 turned out to be 0.197 µM. In addition, at human OPRM1 (μ, MOR) [3], the “β-Arrestin Emax” value was 39.1% and the EC50 is 2.61 µM. Also, on human OPRM1 (μ, MOR) [1], the “Bias Factor (ΔRA of compound relative to ΔRA of DAMGO) × 10” value was −0.99 and the ΔRA of compound is on record as −1.58.

For the compound `COc1ccc(C(CNC(=O)N2CCCc3cc(F)ccc32)N(C)C)cc1` (stereo not drawn) [Compound 68a], the melting point fell in the range of 145 to 146 °C. On human OPRM1 (μ, MOR) [2], the Emax came to 94.6% and the EC50 was 0.167 µM. On human OPRM1 (μ, MOR) [3], the Emax is 39.9% and the EC50 came out at 14.6 µM. Further, at human OPRM1 (μ, MOR) [1], the “Bias Factor (ΔRA of compound relative to ΔRA of DAMGO) × 10” value is given as −8.36 and the ΔRA of compound is given as −2.32.

As to `CN(C)C(CNC(=O)N1Cc2ccc(Cl)cc2C1)c1ccsc1` (stereo not drawn) (as salt: hydrochloride) [Compound 4a, 5-Chloro-N-(2-(dimethylamino)-2-(thiophen-3-yl)ethyl)isoindoline-2-carboxamide hydrochloride], the melting point was 210 to 215 °C (dec.).

Consider `CN(C)C(C)(C)CNC(=O)N1Cc2ccc(F)cc2C1` [Compound 62], for which the melting point was in the range of 200 to 202 °C. At human OPRM1 (μ, MOR) [2], the Emax came out at 81.8% and the EC50 was determined as 21 µM. Moreover, on human OPRM1 (μ, MOR) [3], the maximal effect (Emax) was below 1% and the EC50 is above 100 µM. Moreover, on human OPRM1 (μ, MOR) [1], the “Bias Factor (ΔRA of compound relative to ΔRA of DAMGO) × 10” value is given as below −14.83 and the ΔRA of compound was below −2.96.

For `CN(C)[C@@H](CCNC(=O)N[C@H]1CCc2ccccc2C1)c1ccsc1` [Compound 74], the melting point lay in the range of 144 to 146 °C. For the same compound, at human OPRM1 (μ, MOR) [2], the Emax stood at 11.2% and the EC50 was above 100 µM. In addition, on human OPRM1 (μ, MOR) [3], the Emax is below 1% and the EC50 is above 100 µM.

The compound `CN(C)C(CNC(=O)N(C)C1CCCc2ccccc21)c1ccsc1` (stereo not drawn) (as salt: hydrochloride) [Compound 13a, 3-(2-(Dimethylamino)-2-(thiophen-3-yl)ethyl)-1-methyl-1-(1,2,3,4-tetrahydronaphthalen-1-yl)urea hydrochloride] showed a melting point of 188 to 190 °C.

Turning to `CN(C)C(CNC(=O)N1Cc2ccc(O)cc2C1)c1ccsc1` (stereo not drawn) (as salt: hydrobromid) [Compound 22, N-(2-(Dimethylamino)-2-(thiophen-3-yl)ethyl)-5-hydroxyisoindoline-2-carboxamide hydrobromide], the melting point is 134 °C (dec.).

As for `CN(C)C(CNC(=O)N1Cc2ccc(F)cc2C1)c1ccsc1` (single isomer, unassigned) (as salt: hydrochloride) [2a-ent-(+), (+)—N-(2-(Dimethylamino)-2-(thiophen-3-yl)ethyl)-5-fluoroisoindoline-2-carboxamide hydrochloride], the melting point is 150 to 155 °C (dec.).

In turn, `CN(C)C(CNC(=O)NC1CCc2ccccc2C1)c1ccsc1` (stereo not drawn) (as salt: hydrochloride) [Compound 10a, 1-(2-(Dimethylamino)-2-(thiophen-3-yl)ethyl)-3-(1,2,3,4-tetrahydronaphthalen-2-yl)urea hydrochloride] displayed a melting point of 151 to 153 °C.

For `COc1ccc(C(CNC(=O)N2Cc3ccccc3C2)N(C)C)cc1` (stereo not drawn) (as salt: hydrochloride) [Compound 15a, N-(2-(Dimethylamino)-2-(4-methoxyphenyl)ethyl)isoindoline-2-carboxamide hydrochloride], the melting point was 149 to 151 °C (dec.).

Take `CN(C)C(CNC(=O)N1Cc2ccccc2C1)c1ccsc1` (stereo not drawn) (as salt: hydrochloride) [Compound 1a, N-(2-(Dimethylamino)-2-(thiophen-3-yl)ethyl)isoindoline-2-carboxamide hydrochloride]: the melting point is 145 to 150 °C (dec.).

`COc1ccc2c(c1)CN(C(=O)NCC(c1ccsc1)N(C)C)C2` (stereo not drawn) (as salt: hydrochloride) [Compound 5a, N-(2-(Dimethylamino)-2-(thiophen-3-yl)ethyl)-5-methoxyisoindoline-2-carboxamide hydrochloride]: the melting point was 210 to 215 °C (dec.).

For the compound `Cc1ccc2c(c1)CN(C(=O)NCC(c1ccsc1)N(C)C)C2` (stereo not drawn) (as salt: hydrochloride) [Compound 12a, N-(2-(Dimethylamino)-2-(thiophen-3-yl)ethyl)-5-methylisoindoline-2-carboxamide hydrochloride], the melting point was 200 to 202 °C (dec.).

As for `CN(C)C1(CNC(=O)N[C@H]2CCc3ccccc3C2)CCCC1` [Compound 65], the melting point was in the range of 204 to 206 °C. Moreover, on human OPRM1 (μ, MOR) [2], the Emax was below 10% and the EC50 is above 100 µM. For the same compound, on human OPRM1 (μ, MOR) [3], the maximal response (Emax) is below 1% and the EC50 was above 100 µM.

Take `CN(C)C(CNC(=O)NC1CCc2ccccc2C1)c1ccccc1` (stereo not drawn) (as salt: hydrochloride) [Compound 19a, 1-(2-(Dimethylamino)-2-phenylethyl)-3-(1,2,3,4-tetrahydronaphthalen-2-yl)urea hydrochloride]: the melting point fell in the range of 160 to 161 °C.

With `CN(C)C(CNC(=O)N1Cc2ccc(F)cc2C1)c1ccc(O)cc1` (stereo not drawn) [Compound 21, N-(2-(Dimethylamino)-2-(4-hydroxyphenyl)ethyl)-5-fluoroisoindoline-2-carboxamide], the melting point is 180 to 185 °C (dec.). For the same compound, at human OPRM1 (μ, MOR) [2], the Emax came to 4.5% and the EC50 was above 100 µM. Moreover, at human OPRM1 (μ, MOR) [3], the Emax was below 1% and the EC50 was above 100 µM.

In turn, `CN(C)C(CNC(=O)N1Cc2cc(F)c(F)cc2C1)c1ccsc1` (stereo not drawn) (as salt: hydrochloride) [Compound 6a, N-(2-(dimethylamino)-2-(thiophen-3-yl)ethyl)-5,6-difluoroisoindoline-2-carboxamide hydrochloride] came in with a melting point of 210 to 212 °C.

As to `CN(C)C(CNC(=O)N1Cc2cccc(F)c2C1)c1ccsc1` (stereo not drawn) (as salt: hydrochloride) [Compound 3a, N-(2-(Dimethylamino)-2-(thiophen-3-yl)ethyl)-4-fluoroisoindoline-2-carboxamide hydrochloride], the melting point was 150 to 155 °C (dec.).

`CN(C)C(CNC(=O)NC1CCCc2ccccc21)c1ccsc1` (stereo not drawn) (as salt: hydrochloride) [Compound 11a, 1-(2-(Dimethylamino)-2-(thiophen-3-yl)ethyl)-3-(1,2,3,4-tetrahydronaphthalen-1-yl)urea hydrochloride] showed a melting point of 179 to 181 °C.

As to `CN(C)C(CNC(=O)N1Cc2ccc(F)cc2C1)c1ccc(F)cc1Cl` (stereo not drawn) (as salt: hydrochloride) [Compound 17a, N-(2-(2-Chloro-4-fluorophenyl)-2-(dimethylamino)ethyl)-5-fluoroisoindoline-2-carboxamide hydrochloride], the melting point is 173 to 174 °C (dec.).

Consider `CN(C)C(CNC(=O)N1Cc2ccccc2C1)c1ccccc1` (stereo not drawn) (as salt: hydrochloride) [Compound 18a, N-(2-(Dimethylamino)-2-phenylethyl)isoindoline-2-carboxamide hydrochloride], for which the melting point fell in the range of 107 to 108 °C.

What is called melting point is the temperature, or range, at which the solid turns liquid. The term Emax denotes the maximal effect, on the per cent scale that the assay sets. As a reminder, the EC50 is the concentration needed to bring the measured effect to its halfway point.
